Entries after “also recorded” stand apart in the source; their conditions may differ. Read-outs that look alike come from different tables or passages of the source.
How the values were obtained:
[1] = system: vaccinia virus; type: cell-based
[2] = system: vaccinia virus; type: cell-based; remark: listed apart in the source
[3] = system: BSC40 cells
[4] = system: H1N1 (PR8); parameters: species or system female Balb/c mice; conditions: mouse, in vivo
[5] = system: H1N1 (PR8); parameters: species or system female Balb/c mice; conditions: mouse, in vivo; remark: listed apart in the source
[6] = system: H1N1 (PR8); parameters: species or system female Balb/c mice; conditions: mouse, in vivo; remark: listed apart in the source
[7] = system: H1N1 (PR8); parameters: species or system female Balb/c mice; conditions: mouse, in vivo; remark: listed apart in the source

COc1cc(C(=O)c2cnc(-c3c[nH]c4ccccc34)[nH]2)cc(OC)c1OC.Cl [17ya hydrochloride salt]
release of extracellular enveloped virus (EEV) from infected cells [1]: dose dependent inhibition of virus released | virus associated with the infected cells (IMV) [1]: not a good correlation between the amount of drug and the amount of virus produced | IC50 ([1]; read-out: IC50, virus released into the media (EEV)): 24.3 nM | IC90 ([1]; read-out: IC90, virus released into the media (EEV)): 37.8 nM | vaccinia virus cell-to-cell spread [2]: clear dose-dependent response | IC50 ([2]; read-out: IC50, vaccinia virus cell-to-cell spread): 15.7 nM | IC90 ([2]; read-out: IC90, vaccinia virus cell-to-cell spread): 27 nM | toxicity to BSC40 cells [3]: showed a dose response for toxicity

C[C@@H]1C[C@H]2[C@@H]3CCC4=CC(=O)C=C[C@]4(C)[C@@]3(F)[C@@H](O)C[C@]2(C)[C@@]1(O)C(=O)CO [Dexamethasone]
BAL cell counts: Eosinophils [4]: 0.03 million/animal | BAL cell counts: Lymphocytes [4]: 0.15 million/animal | BAL cell counts: Mononuclear cells [4]: 0.02 million/animal | BAL cell counts: Neutrophils [4]: 0.34 million/animal | BAL cell counts: Totals [4]: 0.54 million/animal | BAL Cytokine level: IFN-γ [5]: 4.80 ± pg/ml | BAL Cytokine level: IL-6 [5]: 351.37 ± pg/ml | BAL Cytokine level: IP-10 [5]: 1102.42 pg/mL | BAL Cytokine level: KC [5]: 854.41 pg/mL | BAL Cytokine level: TNF-α [5]: 24.08 pg/mL | change in CXCL-10 in BAL fluid [5]: −8% | change in Interferon-γ (INF-γ) in BAL fluid [5]: −81% | change in Interleukin-6 (IL-6) in BAL fluid [5]: −52% | change in Keratinocyte-derived chemokine (KC) in BAL fluid [5]: +20% | change in TNF-α in BAL fluid [5]: −13%

CCOC(=O)C1=C[C@@H](OC(CC)CC)[C@H](NC(C)=O)[C@@H](N)C1 [Oseltamivir]
body weight gain / body weight loss vs H1N1 vehicle control group [6]: statistically significantly higher (p<0.01) body weight gain from Day 6 to Day 11; also recorded: attenuated the clinical signs and bodyweight loss | clinical signs associated with H1N1 infection [6]: attenuation of the clinical signs; also recorded: attenuated the clinical signs | BAL cell counts: Eosinophils [4]: 0.01 ± million/animal | BAL cell counts: Lymphocytes [4]: 0.09 ± million/animal | BAL cell counts: Mononuclear cells [4]: 0.01 ± million/animal | BAL cell counts: Neutrophils [4]: 0.15 ± million/animal | BAL cell counts: Totals [4]: 0.27 ± million/animal | BAL total and differential cells compared to the H1N1 control group [4]: statistically significantly (p<0.01) lower BAL total cells, neutrophils, eosinophils, lymphocytes, and mononuclear cells | BAL Cytokine level: IFN-γ [5]: 2.78 ± pg/ml | BAL Cytokine level: IL-6 [5]: 31.01 ± pg/ml | BAL Cytokine level: IP-10 [5]: 147.64 ± pg/ml | BAL Cytokine level: KC [5]: 88.29 ± pg/ml | BAL cytokine levels compared to the H1N1 control group [5]: statistically significantly (p<0.01) lower TNFα, IFNγ, IL-6, KC, and IP-10; also recorded: statistically significantly lower BAL total cells, neutrophils, eosinophils, lymphocytes, mononuclear cells BAL IFNγ, IL-6, IP-10, KC and TNFα | H1N1 induced higher PenH [7]: completely attenuated H1N1 induced higher PenH

Source: US20230321045A1 (priority 2022, published 2023)
